The test system of data set [1] is MGC-803. Briefly: Cytotoxicity against human MGC803 cells assessed as inhibition of cell proliferation after 72 hrs by MTT assay. The data set is classed as functional, cell-based. The note with it: MGC-803, 72 h.
The test system of the next data set is A549. Briefly: Cytotoxicity against human A549 cells assessed as inhibition of cell proliferation after 72 hrs by MTT assay. The data set is classed as functional, cell-based. The note with it: A549, 72 h.
The subject of a further data set is TE-1. Briefly: Cytotoxicity against human TE1 cells assessed as inhibition of cell proliferation after 72 hrs by MTT assay. Format: functional, cell-based. The note with it: TE-1, 72 h. (In general: Tetrazolium assays rely on reduction of a dye to a coloured formazan, in cell work by metabolically active cells.)
A further data set concerns THP-1. The data set is described as follows: Cytotoxicity against human THP1 cells assessed as inhibition of cell proliferation after 72 hrs by MTT assay. The data set is classed as functional, cell-based. The note with it: THP-1, 72 h.
The subject of the next data set is GES1. Briefly: Cytotoxicity against human GES-1 cells assessed as inhibition of cell proliferation after 72 hrs by MTT assay. The data set is classed as cell-based. As to conditions: GES1, 72 h.
The nature of data set [2]: Selectivity index, ratio of IC50 for human GES-1 cells to IC50 for human MGC803 cells. Format: toxicity. The note with it: GES-1 cells versus MGC803 cells, read-out: Ratio IC50.
The subject of data set [3] is MGC-803. Briefly: Inhibition of colony formation in human MGC803 cells after 7 days by crystal violet staining based assay. Format: functional, cell-based.
Data set [4] relates to MGC-803. Briefly: Induction of apoptosis in human MGC803 cells assessed as cell rounding at 0.25 to 1 uM after 72 hrs by Hoechst 33258 staining based fluorescence microscopic method. Format: functional.
Data set [5] concerns MGC-803. Briefly: Induction of apoptosis in human MGC803 cells assessed as chromatin shrinkage at 0.25 to 1 uM after 72 hrs by Hoechst 33258 staining based fluorescence microscopic method. Format: functional, cell-based.
Data set [6] concerns MGC-803. The data set is described as follows: Induction of apoptosis in human MGC803 cells assessed as formation of apoptotic bodies at 0.25 to 1 uM after 72 hrs by Hoechst 33258 staining based fluorescence microscopic method. The data set is classed as functional, cell-based.
In data set [7] the test system is MGC-803. Briefly: Induction of apoptosis in human MGC803 cells assessed as apoptotic cells at 1 uM after 72 hrs by Annexin V-FITC/propidium iodide staining based flow cytometry (reference value: 0.6%). The data set is classed as functional.
Data set [8] relates to MGC-803. Briefly: Induction of apoptosis in human MGC803 cells after 72 hrs by Annexin V-FITC/propidium iodide staining based flow cytometry. Format: functional, cell-based.
Data set [9] concerns MGC-803. Briefly: Induction of apoptosis in human MGC803 cells assessed as increase in Bax expression at 0.25 to 1 uM after 72 hrs by Western blot analysis. The data set is classed as functional, cell-based. (In general: A western blot detects proteins with antibodies after separation by electrophoresis.)
The test system of data set [10] is MGC-803. The data set is described as follows: Induction of apoptosis in human MGC803 cells assessed as decrease in Bcl2 expression at 0.25 to 1 uM after 72 hrs by Western blot analysis. The data set is classed as functional, cell-based.
For data set [11], the system named is MGC-803. Briefly: Induction of apoptosis in human MGC803 cells assessed as increase in cleaved caspase-9 level after 72 hrs by Western blot analysis. The data set is classed as functional, cell-based.
The subject of data set [12] is MGC-803. The data set is described as follows: Induction of apoptosis in human MGC803 cells assessed as increase in cleaved caspase-3 level after 72 hrs by Western blot analysis. Format: functional, cell-based.
Data set [13] concerns MGC-803. Briefly: Induction of apoptosis in human MGC803 cells assessed as increase in cleaved caspase-8 level after 72 hrs by Western blot analysis. The data set is classed as functional, cell-based.
The test system of data set [14] is MGC-803. Briefly: Induction of apoptosis in human MGC803 cells assessed as increase in cleaved PARP level after 72 hrs by Western blot analysis. The data set is classed as functional, cell-based.
Data set [15] deals with MGC-803. Briefly: Antimigratory activity in human MGC803 cells at 0.25 to 1 uM after 72 hrs by wound healing assay. The data set is classed as functional, cell-based.
Data set [16] has as its system MGC-803. Briefly: Antimigratory activity in human MGC803 cells at 0.25 to 1 uM after 72 hrs by Hoechst 33258 staining based transwell assay. The data set is classed as functional, cell-based.
In data set [17] the test system is MGC-803. The data set is described as follows: Antiinvasive activity in human MGC803 cells after 72 hrs by Hoechst 33258 staining based matrigel coated transwell assay. The data set is classed as functional, cell-based.

SMILES strings stand for the structures. Active and inactive are the calls of the source. The calls are words filed in the database; no cut-off is given here.

For `CCCSc1nc(N2CCOCC2)c2nc(/C=C/C(=O)c3cccc(OC)n3)n(Cc3ccccc3)c2n1`, the IC50 in the data set with MGC-803 [1] is 8.62 µM; with A549, greater than 32 µM; in the data set on TE-1, 10.7 µM; in the data set on THP-1 it was 9.73 µM.

In the case of `CCCSc1nc(N2CCOCC2)c2nc(/C=C/C(=O)c3ccc(C)cc3)n(CCCc3ccccc3)c2n1`, the IC50 with MGC-803 [1] was 0.84 µM; in the data set with A549, 2.11 µM; in the data set on TE-1, 8.52 µM; in the data set with THP-1 it was 26.2 µM; with GES1, 23.4 µM. In data set [2], the selectivity ratio worked out at 27.8. Besides, in the data set with MGC-803 [3], the inhibition result is “Dose-dependent effect”. Further, the result in the data set with MGC-803 [4], in the data set with MGC-803 [5], in the data set on MGC-803 [6], in the data set with MGC-803 [9], in the data set on MGC-803 [10] and in the data set on MGC-803 [15] was Active. In addition, in the data set on MGC-803 [16], the result was Active. The Activity in the data set with MGC-803 [7] is 86.3%; in the data set with MGC-803 [8] it was “Dose-dependent effect”; with MGC-803 [11], “Dose-dependent effect”; in the data set with MGC-803 [12], “Dose-dependent effect”; in the data set on MGC-803 [13], “Dose-dependent effect”; in the data set with MGC-803 [14], “Dose-dependent effect”. Moreover, in the data set on MGC-803 [17], the Activity entry was “Dose-dependent effect”.

As to `CCCSc1nc(N2CCOCC2)c2nc(CCc3ccccc3)n(Cc3ccccc3)c2n1`, the IC50 with MGC-803 [1] and in the data set on A549 was greater than 32 µM in each case.

Take `CCCSc1nc(N2CCOCC2)c2nc(/C=C/C(=O)c3ccc(-c4ccccc4)cc3)n(Cc3ccccc3)c2n1`: the IC50 with MGC-803 [1], with A549, in the data set with TE-1 and in the data set on THP-1 was greater than 32 µM throughout.

For the compound `CCCSc1nc(N2CCOCC2)c2nc(/C=C/C(=O)c3ccc(Cl)cc3)n(Cc3ccccc3)c2n1`, the IC50 in the data set on MGC-803 [1] is 8.32 µM; with A549, 17.1 µM; with TE-1 it was 19.1 µM; in the data set on THP-1, 3.71 µM.

For `CCCSc1nc(NCc2ccccc2)c2nc(/C=C/C(=O)c3ccc(C)cc3)n(Cc3ccccc3)c2n1`, the IC50 is 12.4 µM with MGC-803 [1], 30.1 µM in the data set on A549, greater than 32 µM in the data set with TE-1 and greater than 32 µM in the data set on THP-1.

On to `CCCSc1nc(N2CCOCC2)c2nc(/C=C/C(=O)c3ccc(C)cc3)n(CC3CCCCC3)c2n1`, for which the IC50 with MGC-803 [1] worked out at 4.02 µM; in the data set with A549, 10.5 µM; in the data set with TE-1, 8.43 µM; in the data set with THP-1, 3.83 µM.

For `CCCSc1nc(N2CCOCC2)c2nc(/C=C/C(=O)c3ccc(OC)c(OC)c3)n(Cc3ccccc3)c2n1`, the IC50 is 4.91 µM in the data set with MGC-803 [1], 9.74 µM with A549, 8.56 µM with TE-1 and greater than 32 µM in the data set on THP-1.

Regarding `CCCSc1nc(N2CCOCC2)c2nc(/C=C/C(=O)c3ccc(OC)cc3)n(Cc3ccccc3)c2n1`, the IC50 was 3.1 µM in the data set with MGC-803 [1], 7.63 µM in the data set on A549, 5.87 µM in the data set on TE-1 and 2.52 µM in the data set with THP-1.

Consider `CCCSc1nc(N2CCOCC2)c2nc(/C=C/C(=O)c3ccc(C)cc3)n(Cc3ccccc3)c2n1`, for which the IC50 in the data set on MGC-803 [1] was found to be 1.55 µM; in the data set with A549, 4.9 µM; in the data set with TE-1 it was 3.63 µM; in the data set on THP-1, 2.76 µM.

With `CCCSc1nc(N2CCCCC2)c2nc(/C=C/C(=O)c3ccc(C)cc3)n(Cc3ccccc3)c2n1`, the IC50 with MGC-803 [1] is 15.7 µM; with A549 it was greater than 32 µM; with TE-1, greater than 32 µM; with THP-1, greater than 32 µM.

Turning to `CCCSc1nc(N2CCOCC2)c2nc(/C=C/C(=O)c3cc(OC)c(OC)c(OC)c3)n(Cc3ccccc3)c2n1`, the IC50 with MGC-803 [1] was 6.52 µM; in the data set with A549, greater than 32 µM; in the data set with TE-1, 9.93 µM; in the data set with THP-1, greater than 32 µM.

In the case of `CCCSc1nc(N2CCOCC2)c2nc(/C=C/C(=O)c3ccc(Br)cc3)n(Cc3ccccc3)c2n1`, the IC50 was 3.41 µM with MGC-803 [1], 10.7 µM in the data set with A549, 13.3 µM in the data set on TE-1 and 11.4 µM in the data set on THP-1.

Consider `CCCSc1nc(Cl)c2c(n1)N(Cc1ccccc1)C(C(=O)NCCCc1ccccc1)N2` (stereo not drawn), for which the IC50 in the data set with GES1 is 24.9 µM. Further, the selectivity ratio in data set [2] came to 1.5. Besides, the inhibition entry with MGC-803 [3] was “Active”.

Take `CCCSc1nc(N2CCOCC2)c2nc(/C=C/C(=O)c3ccccc3)n(Cc3ccccc3)c2n1`: the IC50 in the data set with MGC-803 [1] was determined as 4.74 µM; with A549, 14.9 µM; with TE-1 it was 7.38 µM; in the data set with THP-1 it was 1.41 µM; in the data set on GES1, 35.6 µM. In data set [2], the selectivity ratio came out at 7.5.

For `CCCSc1nc(N2CCOCC2)c2nc(/C=C/c3ccccc3)n(Cc3ccccc3)c2n1`, the IC50 in the data set with MGC-803 [1] was 30.5 µM; with A549, greater than 32 µM.

For `CCCSc1nc(N2CCOCC2)c2nc(/C=C/C(=O)c3ccccc3Cl)n(Cc3ccccc3)c2n1`, the IC50 was 2.41 µM in the data set with MGC-803 [1], 9.19 µM with A549, 4.87 µM in the data set with TE-1 and 9.73 µM in the data set on THP-1.

`CCCSc1nc(N2CCOCC2)c2nc(-c3ccccc3)n(Cc3ccccc3)c2n1`: the IC50 in the data set on MGC-803 [1] and with A549 was greater than 32 µM throughout.

As for `CCCSc1nc(N2CCOCC2)c2nc(/C=C/C(=O)c3ccc4ccccc4c3)n(Cc3ccccc3)c2n1`, the IC50 in the data set on MGC-803 [1] is 7.75 µM; in the data set with A549 it was 28.1 µM; in the data set on TE-1, 23.8 µM; with THP-1, greater than 32 µM.

Broadly, the IC50 is the midpoint of a concentration-inhibition curve.
